Laboratory results: patent US20120270237A9, “METHODS FOR THE IDENTIFICATION OF KINASE INTERACTING MOLECULES AND FOR THE PURIFICATION OF KINASE PROTEINS” (Cellzone AG, priority 2009, published 2012)

Key:
[1] = biological target: T1, kinases from mixed HeLa placenta lysates (Homo sapiens, UniProt Q13470); assay: Kinobeads competition binding with immobilized CZC25342, mixed HeLa placenta lysates (Example 5, Table 7); settings: kinase TNK1; 10 μM free compound; HeLa Placenta lysate mix
T1 construct: capturing and identification of kinases from mixed HeLa placenta lysates; endogenous in cells; host or cells: mixed lysate of HeLa cells and placenta tissue
T1 sequence (Q13470 whole entry): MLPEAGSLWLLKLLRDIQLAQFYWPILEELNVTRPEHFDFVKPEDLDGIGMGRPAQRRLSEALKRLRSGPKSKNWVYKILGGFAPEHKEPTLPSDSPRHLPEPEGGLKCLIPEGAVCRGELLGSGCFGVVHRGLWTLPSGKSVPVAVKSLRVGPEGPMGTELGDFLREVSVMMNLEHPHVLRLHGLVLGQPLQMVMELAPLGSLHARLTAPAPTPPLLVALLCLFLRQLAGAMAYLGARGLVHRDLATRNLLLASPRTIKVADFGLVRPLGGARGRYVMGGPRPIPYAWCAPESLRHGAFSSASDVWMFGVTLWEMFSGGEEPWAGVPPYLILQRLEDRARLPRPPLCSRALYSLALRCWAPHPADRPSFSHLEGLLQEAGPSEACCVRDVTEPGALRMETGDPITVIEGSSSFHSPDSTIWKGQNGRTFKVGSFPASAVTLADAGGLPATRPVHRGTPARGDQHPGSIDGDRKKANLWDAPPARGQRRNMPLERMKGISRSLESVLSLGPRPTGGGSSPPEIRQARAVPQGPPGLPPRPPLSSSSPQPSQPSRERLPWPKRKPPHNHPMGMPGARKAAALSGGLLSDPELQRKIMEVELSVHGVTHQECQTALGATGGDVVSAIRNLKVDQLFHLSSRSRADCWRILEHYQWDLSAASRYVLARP
Method in brief: (§1)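 Mixed HeLa/placenta lysate was preincubated with 10 μM free CZC25342 or DMSO, followed by capture on beads bearing immobilized compound. Bound proteins were eluted, separated by SDS-PAGE, trypsin-digested, iTRAQ-labelled and quantified by LC-MS/MS. Percent competition was taken against the DMSO control.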

[2] = biological target: T2, kinases from mixed HeLa placenta lysates (Homo sapiens, UniProt Q9UHD2); assay: as above; settings: kinase TBK1; 10 μM free compound; HeLa Placenta lysate mix
T2 construct: capturing and identification of kinases from mixed HeLa placenta lysates; endogenous in cells; host or cells: mixed lysate of HeLa cells and placenta tissue
T2 sequence (Q9UHD2 whole entry): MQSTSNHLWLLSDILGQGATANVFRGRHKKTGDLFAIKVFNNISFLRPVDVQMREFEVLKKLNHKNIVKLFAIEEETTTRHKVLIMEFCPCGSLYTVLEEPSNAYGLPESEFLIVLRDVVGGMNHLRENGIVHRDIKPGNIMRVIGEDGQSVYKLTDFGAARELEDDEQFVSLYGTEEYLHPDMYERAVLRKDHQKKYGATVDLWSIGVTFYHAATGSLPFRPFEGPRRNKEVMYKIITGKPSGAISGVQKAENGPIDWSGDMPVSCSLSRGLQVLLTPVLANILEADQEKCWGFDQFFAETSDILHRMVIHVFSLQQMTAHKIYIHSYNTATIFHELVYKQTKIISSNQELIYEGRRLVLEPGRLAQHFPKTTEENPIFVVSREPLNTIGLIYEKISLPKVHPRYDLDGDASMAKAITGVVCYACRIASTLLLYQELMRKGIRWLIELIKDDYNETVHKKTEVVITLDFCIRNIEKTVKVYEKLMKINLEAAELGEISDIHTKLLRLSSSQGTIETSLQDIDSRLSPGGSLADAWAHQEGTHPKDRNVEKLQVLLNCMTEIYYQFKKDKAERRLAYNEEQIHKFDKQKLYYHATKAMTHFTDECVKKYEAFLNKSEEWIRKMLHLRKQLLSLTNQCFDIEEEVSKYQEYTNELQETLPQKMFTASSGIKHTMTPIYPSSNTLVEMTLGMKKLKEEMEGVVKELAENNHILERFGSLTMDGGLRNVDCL
Method in brief: as §1

[3] = biological target: T3, kinases from mixed HeLa placenta lysates (Homo sapiens, UniProt Q9Y616); assay: as above; settings: kinase IRAK3; 10 μM free compound; HeLa Placenta lysate mix
T3 construct: capturing and identification of kinases from mixed HeLa placenta lysates; endogenous in cells; host or cells: mixed lysate of HeLa cells and placenta tissue
Method in brief: as §1

[4] = biological target: T4, kinases from mixed HeLa placenta lysates (Homo sapiens, UniProt Q6PHR2); assay: as above; settings: kinase ULK3; 10 μM free compound; HeLa Placenta lysate mix
T4 construct: capturing and identification of kinases from mixed HeLa placenta lysates; endogenous in cells; host or cells: mixed lysate of HeLa cells and placenta tissue
Method in brief: as §1

[5] = biological target: T5, kinases from mixed HeLa placenta lysates (Homo sapiens, UniProt Q00535); assay: as above; settings: kinase CDK5; 10 μM free compound; HeLa Placenta lysate mix
T5 construct: capturing and identification of kinases from mixed HeLa placenta lysates; endogenous in cells; host or cells: mixed lysate of HeLa cells and placenta tissue
T5 sequence (Q00535 whole entry): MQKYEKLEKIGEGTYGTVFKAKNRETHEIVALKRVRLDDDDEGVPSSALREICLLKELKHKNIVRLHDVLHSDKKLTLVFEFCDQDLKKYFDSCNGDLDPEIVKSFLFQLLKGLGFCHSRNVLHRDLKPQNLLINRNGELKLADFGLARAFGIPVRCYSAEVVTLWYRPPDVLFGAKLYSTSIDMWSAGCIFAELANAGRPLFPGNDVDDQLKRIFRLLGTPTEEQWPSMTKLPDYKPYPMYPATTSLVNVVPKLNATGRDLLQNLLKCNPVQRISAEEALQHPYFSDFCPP
Method in brief: as §1

[6] = biological target: T6, kinases from mixed HeLa placenta lysates (Homo sapiens, UniProt P51956); assay: as above; settings: kinase NEK3; 10 μM free compound; HeLa Placenta lysate mix
T6 construct: capturing and identification of kinases from mixed HeLa placenta lysates; endogenous in cells; host or cells: mixed lysate of HeLa cells and placenta tissue
Method in brief: as §1

[7] = biological target: T7, kinases from mixed HeLa placenta lysates (Homo sapiens, UniProt P54646); assay: as above; settings: kinase AMPKa2; 10 μM free compound; HeLa Placenta lysate mix
T7 construct: capturing and identification of kinases from mixed HeLa placenta lysates; endogenous in cells; host or cells: mixed lysate of HeLa cells and placenta tissue
Method in brief: as §1

[8] = biological target: T8, kinases from mixed HeLa placenta lysates (Homo sapiens, UniProt Q9H422); assay: as above; settings: kinase HIPK3; 10 μM free compound; HeLa Placenta lysate mix
T8 construct: capturing and identification of kinases from mixed HeLa placenta lysates; endogenous in cells; host or cells: mixed lysate of HeLa cells and placenta tissue
Method in brief: as §1

[9] = biological target: T9, kinases from mixed HeLa placenta lysates (Homo sapiens, UniProt Q7KZI7); assay: as above; settings: kinase MARK2; 10 μM free compound; HeLa Placenta lysate mix
T9 construct: capturing and identification of kinases from mixed HeLa placenta lysates; endogenous in cells; host or cells: mixed lysate of HeLa cells and placenta tissue
T9 sequence (Q7KZI7 whole entry): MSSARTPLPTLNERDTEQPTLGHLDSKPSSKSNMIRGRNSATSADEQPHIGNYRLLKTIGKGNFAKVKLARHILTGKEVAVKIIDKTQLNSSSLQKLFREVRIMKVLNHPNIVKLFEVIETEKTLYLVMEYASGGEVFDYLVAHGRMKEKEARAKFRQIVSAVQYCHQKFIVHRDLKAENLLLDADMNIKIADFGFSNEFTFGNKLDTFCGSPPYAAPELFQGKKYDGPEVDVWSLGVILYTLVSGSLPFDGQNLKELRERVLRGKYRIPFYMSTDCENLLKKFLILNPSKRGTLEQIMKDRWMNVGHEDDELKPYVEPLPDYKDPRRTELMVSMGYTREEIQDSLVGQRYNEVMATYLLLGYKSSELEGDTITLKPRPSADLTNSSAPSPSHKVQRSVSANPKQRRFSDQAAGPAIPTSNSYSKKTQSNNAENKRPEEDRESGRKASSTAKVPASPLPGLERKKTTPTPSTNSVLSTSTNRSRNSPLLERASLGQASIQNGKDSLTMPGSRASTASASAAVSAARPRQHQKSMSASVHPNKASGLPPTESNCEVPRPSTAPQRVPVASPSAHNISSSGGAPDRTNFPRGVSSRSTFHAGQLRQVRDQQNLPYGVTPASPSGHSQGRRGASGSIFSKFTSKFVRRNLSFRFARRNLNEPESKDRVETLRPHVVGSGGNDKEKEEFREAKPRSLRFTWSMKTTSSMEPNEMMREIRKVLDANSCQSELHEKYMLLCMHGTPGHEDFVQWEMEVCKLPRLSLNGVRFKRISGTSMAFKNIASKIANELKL
Method in brief: as §1

[10] = biological target: T10, kinases from mixed HeLa placenta lysates (Homo sapiens, UniProt Q8TD19); assay: as above; settings: kinase NEK9; 10 μM free compound; HeLa Placenta lysate mix
T10 construct: capturing and identification of kinases from mixed HeLa placenta lysates; endogenous in cells; host or cells: mixed lysate of HeLa cells and placenta tissue
T10 sequence (Q8TD19 whole entry): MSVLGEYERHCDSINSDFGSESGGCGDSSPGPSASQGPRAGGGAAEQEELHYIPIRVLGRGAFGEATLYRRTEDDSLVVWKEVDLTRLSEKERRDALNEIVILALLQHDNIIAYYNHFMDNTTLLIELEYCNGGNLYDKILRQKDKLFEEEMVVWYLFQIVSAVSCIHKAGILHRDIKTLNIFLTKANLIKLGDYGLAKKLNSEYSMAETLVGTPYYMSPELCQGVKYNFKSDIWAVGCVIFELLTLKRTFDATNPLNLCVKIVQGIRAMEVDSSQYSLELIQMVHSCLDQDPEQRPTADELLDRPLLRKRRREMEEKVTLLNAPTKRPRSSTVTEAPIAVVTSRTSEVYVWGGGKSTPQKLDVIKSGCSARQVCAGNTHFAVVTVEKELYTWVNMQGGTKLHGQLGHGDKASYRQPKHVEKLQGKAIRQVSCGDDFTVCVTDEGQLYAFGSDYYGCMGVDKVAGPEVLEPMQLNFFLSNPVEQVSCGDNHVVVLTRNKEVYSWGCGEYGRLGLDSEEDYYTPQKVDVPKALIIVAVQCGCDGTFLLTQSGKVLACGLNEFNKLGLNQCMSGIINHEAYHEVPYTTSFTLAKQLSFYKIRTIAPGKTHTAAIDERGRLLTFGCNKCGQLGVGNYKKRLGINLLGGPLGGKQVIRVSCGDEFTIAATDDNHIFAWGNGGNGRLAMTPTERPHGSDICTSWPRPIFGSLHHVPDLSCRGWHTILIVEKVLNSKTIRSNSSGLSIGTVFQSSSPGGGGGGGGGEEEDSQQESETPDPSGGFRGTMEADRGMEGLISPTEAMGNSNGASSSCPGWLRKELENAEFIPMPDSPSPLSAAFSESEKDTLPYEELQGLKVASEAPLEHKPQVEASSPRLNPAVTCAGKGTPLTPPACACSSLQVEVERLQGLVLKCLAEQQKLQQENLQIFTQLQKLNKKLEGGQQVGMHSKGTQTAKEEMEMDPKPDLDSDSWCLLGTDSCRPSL
Method in brief: as §1

[11] = biological target: T11, kinases from mixed HeLa placenta lysates (Homo sapiens, UniProt P06241); assay: as above; settings: kinase FYN; 10 μM free compound; HeLa Placenta lysate mix
T11 construct: capturing and identification of kinases from mixed HeLa placenta lysates; endogenous in cells; host or cells: mixed lysate of HeLa cells and placenta tissue
T11 sequence (P06241 whole entry): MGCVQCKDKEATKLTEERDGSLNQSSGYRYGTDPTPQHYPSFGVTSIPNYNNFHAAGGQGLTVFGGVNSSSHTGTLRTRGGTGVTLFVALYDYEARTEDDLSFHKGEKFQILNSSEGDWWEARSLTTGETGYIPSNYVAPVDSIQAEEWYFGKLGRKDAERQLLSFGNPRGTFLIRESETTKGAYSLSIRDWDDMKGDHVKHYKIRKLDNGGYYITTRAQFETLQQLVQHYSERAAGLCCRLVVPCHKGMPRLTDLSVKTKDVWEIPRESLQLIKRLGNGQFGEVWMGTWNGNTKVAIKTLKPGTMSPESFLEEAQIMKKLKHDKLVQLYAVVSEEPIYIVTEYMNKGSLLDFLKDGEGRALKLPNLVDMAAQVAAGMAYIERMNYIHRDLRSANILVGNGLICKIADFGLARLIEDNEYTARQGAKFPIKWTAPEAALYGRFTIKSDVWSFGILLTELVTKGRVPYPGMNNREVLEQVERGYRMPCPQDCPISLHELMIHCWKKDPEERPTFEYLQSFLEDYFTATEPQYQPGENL
Method in brief: as §1

GSK3B = GSK3B (Homo sapiens, UniProt P49841); assay: Kinobeads competition binding, L-363 cell lysate; set-up: endogenous in cells; settings: 10 μM free compound, L-363 lysate
GSK3B, sequence (P49841 whole entry): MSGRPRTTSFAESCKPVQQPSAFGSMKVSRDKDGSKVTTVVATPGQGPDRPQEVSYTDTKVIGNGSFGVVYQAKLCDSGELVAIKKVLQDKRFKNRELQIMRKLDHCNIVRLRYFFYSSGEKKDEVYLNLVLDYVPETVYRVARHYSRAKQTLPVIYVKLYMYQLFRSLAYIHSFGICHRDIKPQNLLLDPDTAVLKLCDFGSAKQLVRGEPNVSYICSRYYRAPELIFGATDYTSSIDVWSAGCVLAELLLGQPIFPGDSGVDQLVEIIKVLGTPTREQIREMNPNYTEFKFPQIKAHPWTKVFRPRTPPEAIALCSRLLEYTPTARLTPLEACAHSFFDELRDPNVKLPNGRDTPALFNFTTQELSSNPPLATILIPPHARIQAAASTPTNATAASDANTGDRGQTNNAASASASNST
Experimental: (§2) To one aliquot of cell lysate 10 μM of the free compound (FIG. 3, CZC31326) was added and allowed to bind to proteins in the lysate. Then the affinity matrix with the immobilized compound was added to capture proteins that were not interacting with the previously added free compound. Beads were separated from the lysate and bead bound proteins were eluted in SDS sample buffer and subsequently separated by SDS-Polyacrylamide gel electrophoresis (FIG. 8). Suitable gel bands were cut out and subjected to in-gel proteolytic digestion with trypsin. The second lysate aliquot was processed identically, however no free compound was added (DMSO solvent control). Peptides originating from samples 1 and 2 were labeled with iTRAQ reagents (iTRAQ 114 and iTRAQ 117) and the combined samples were analyzed with a nano-flow liquid chromatography system coupled online to a tandem mass spectrometer (LC-MS/MS) experiment followed by iTRAQ reporter ion quantification in the MS/MS spectra as described in Example 2.
(§3) For this experiment the human plasma cell leukaemia line L-363 was used (German Collection of Microorganisms and Cell Cultures, DSMZ number ACC49, Braunschweig, Germany). Cells were treated for three hours with 20 μM of the proteasome inhibitor MG132 (Z-Leu-Leu-Leu-al, Sigma C2211) prior to cell harvesting.

GSK3A = GSK3A (Homo sapiens, UniProt P49840); assay: Kinobeads competition binding, L-363 cell lysate; set-up: endogenous in cells; settings: 10 μM free compound, L-363 lysate
GSK3A, sequence (P49840 whole entry): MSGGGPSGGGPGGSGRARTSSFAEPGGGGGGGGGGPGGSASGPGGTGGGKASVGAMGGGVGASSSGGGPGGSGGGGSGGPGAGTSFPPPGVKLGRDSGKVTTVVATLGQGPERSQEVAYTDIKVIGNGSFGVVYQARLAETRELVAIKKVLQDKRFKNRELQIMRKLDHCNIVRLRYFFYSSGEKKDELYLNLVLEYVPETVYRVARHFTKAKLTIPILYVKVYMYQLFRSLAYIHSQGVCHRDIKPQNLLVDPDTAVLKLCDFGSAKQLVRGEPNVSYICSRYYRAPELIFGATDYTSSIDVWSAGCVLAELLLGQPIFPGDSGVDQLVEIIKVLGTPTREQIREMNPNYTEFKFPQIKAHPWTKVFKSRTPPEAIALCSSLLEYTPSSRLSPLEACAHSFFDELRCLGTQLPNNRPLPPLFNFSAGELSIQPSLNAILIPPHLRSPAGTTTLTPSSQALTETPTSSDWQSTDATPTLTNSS
Experimental: as §2, §3

PHKg2 = biological target: T12, PHKg2 (Homo sapiens, UniProt P15735); assay: Kinobeads competition binding, L-363 cell lysate; set-up: endogenous in cells; settings: 10 μM free compound, L-363 lysate
T12 sequence (P15735 1-406): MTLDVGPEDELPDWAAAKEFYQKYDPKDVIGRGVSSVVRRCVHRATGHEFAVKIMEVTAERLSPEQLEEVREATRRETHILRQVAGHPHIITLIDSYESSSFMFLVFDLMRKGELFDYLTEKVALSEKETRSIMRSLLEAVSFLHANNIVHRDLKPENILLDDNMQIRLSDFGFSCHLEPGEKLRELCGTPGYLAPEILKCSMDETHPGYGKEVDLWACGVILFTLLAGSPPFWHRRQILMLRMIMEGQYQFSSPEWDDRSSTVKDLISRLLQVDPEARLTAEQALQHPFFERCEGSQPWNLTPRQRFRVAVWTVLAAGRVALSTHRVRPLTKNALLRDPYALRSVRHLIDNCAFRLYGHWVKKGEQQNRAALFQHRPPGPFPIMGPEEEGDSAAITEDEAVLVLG
Experimental: as §2, §3

Competition % TNK1 [1] [%] | Competition % TBK1 [2] [%] | Competition % IRAK3 [3] [%] | Competition % ULK3 [4] [%] | Competition % CDK5 [5] [%] | Competition % NEK3 [6] [%] | Competition % AMPKa2 [7] [%] | Competition % HIPK3 [8] [%] | Competition % MARK2 [9] [%] | Competition % FYN [11] [%] | inhibition at 10 µM (GSK3B) [%] | inhibition at 10 µM (GSK3A) [%] | inhibition at 10 µM (PHKg2) [%] | SMILES | Competition % NEK9 [10] [%]
94.1 | 88.8 | 86.2 | 94.8 | 92.6 | 94.8 | 97.1 | 95.4 | 93.4 | 93.2 |  |  |  | CS(=O)(=O)Nc1ccccc1Nc1nc(Nc2cccc(OCCN)c2)ncc1F [CZC25342, N-(2-(2-(3-(2-aminoethoxy)phenylamino)-5-fluoropyrimidin-4-ylamino)phenyl)methanesulfonamide] | 83
 |  |  |  |  |  |  |  |  |  | 94.6 | 96.9 | 94.1 | CS(=O)(=O)Nc1ccccc1Nc1nc(Nc2cccc(OCCN)c2)ncc1Cl [CZC31326, N-(2-(2-(3-(2-aminoethoxy)phenylamino)-5-chloropyrimidin-4-ylamino)phenyl)methanesulfonamide] | 
